Values quoted from earlier work, collected in patent publication US8609668B2, “Substituted triazolo[1,5-A]pyrimidines as antiviral agents” (Philadelphia Health & Education Corporation, priority 2006, dated 2013).

Tested on: HBeAg secretion
Settings: in vivo and in vitro

Which “secretion of HBeAg” value does the source give for `O=c1oc2c(O)c(O)cc3c(=O)oc4c(O)c(O)cc1c4c23` [Ellagic acid] here?
Its value is “specifically inhibit secretion of HBeAg”.
